Assays:
[1] = tested on: transgenic Indica1 rice callus, ACC gene containing I1781(Am)L and I2041(Am)N; assay: Growth of transgenic Indica1 callus on selection media; type: cell-based, Oryza sativa; details: construct I1781(Am)L
Description: (§1) Indica1 and Nipponbare rice callus transformation was carried out essentially as described in Hiei and Komari (2008) with the exception of media substitutions as specified (see attached media table for details). Callus was induced on R001M media for 4-8 weeks prior to use in transformation. Agrobacterium utilized was LBA4404(pSB1) (Ishida et al. 1996) transformed with RLM185 (L. Mankin, unpublished: contains DsRed and a mutant AHAS for selection), ACC gene containing I1781(Am)L, ACC gene containing I1781(Am)L and W2027C, ACC gene containing I1781(Am)L and I2041(Am)N, or ACC gene containing I1781(Am)A or wild type which also contains a mutant AHAS gene for selection. Agrobacterium grown for 1-3 days on solid media was suspended in M-LS-002 medium and the OD660 adjusted to approximately 0.1. Callus was immersed in the Agrobacterium solution for approximately 30 minutes. Liquid was removed, and then callus was moved to filter paper for co-culture on semi-solid rice cc media. Co-culture was for 3 days in the dark at 24° C. Filters containing rice callus were directly transferred to R001M media containing Timentin for 1-2 weeks for recovery and cultured in the dark at 30° C. Callus was subdivided onto fresh R001M media with Timentin and supplemented with 100 μM Imazethapyr, 10 μM Cycloxydim or 2.5 μM Tepraloxydim. After 3-4 weeks, callus was transferred to fresh selection media. Following another 3-4 weeks, growing callus was transferred to fresh media and allowed to grow prior to Taqman analysis. Taqman analysis was for the Nos terminator and was conducted to provide for a molecular confirmation of the transgenic nature of the selected calli. Growth of transgenic calli was measured with various selection agents by subculturing calli on media containing either 10 μM Cycloxydim or Haloxyfop, 2.5 μM Tepraloxydim or 100 μM Imazethapry. Calli size was measured from scanned images following initial subculture and then after approximately 1 month of growth.
(§2) As can be observed in Table 7, the double mutant constructs allowed for growth on both Cycloxydim and Tepraloxydim in addition to Haloxyfop. The levels utilized in these growth experiments are inhibitory for wild type material. Growth was measured as a % change in size following 1 month of culture on the selection media.

[2] = tested on: transgenic Indica1 rice callus, ACC gene containing I1781(Am)L and W2027(Am)C; assay: as above; type: cell-based, Oryza sativa; details: construct I1781(Am)L
Description: as §1, §2

[3] = tested on: rice plants containing the I1,781(Am)L heterozygous mutation; type: in vivo, Oryza sativa; details: 400-1600 g ai/ha with 0.1% methylated seed oil; rated 1 and 2 weeks after treatment
Description: (§3) Selected mutants and escapes were transferred to small pots. Wild-type cultivars and 3 biovars of red rice were germinated from seed to serve as controls.
(§4) After ca. 3 weeks post-transplant. M0 regenerants were sprayed using a track sprayer with 400-1600 g ai/ha cycloxydim (BAS 517H) supplemented with 0.1% methylated seed oil. After the plants had adapted to greenhouse conditions, a subset were sprayed with 800 g ai/ha cycloxydim. Once sprayed, plants were kept on drought conditions for 24 hours before being watered and fertilized again. Sprayed plants were photographed and rated for herbicide injury at 1 (FIG. 3) and 2 weeks after treatment (FIG. 4). […] FIGS. 5-15 provide nucleic acid and/or amino acid sequences of acetyl-Coenzyme A carboxylase enzymes from various plants. FIG. 17 provides a graph showing results for mutant rice versus various ACCase inhibitors.

[4] = tested on: control plants (wild-type cultivars, red rice) and tissue culture escapes; assay: Greenhouse track-sprayer test, herbicide injury rating; type: in vivo, Oryza sativa; details: 400-1600 g ai/ha with 0.1% methylated seed oil; rated 1 and 2 weeks after treatment
Description: as §3, §4

[5] = tested on: ACCase-inhibitor tolerant rice plants; assay: Field treatment of ACCase-inhibitor tolerant rice; type: in vivo, Oryza sativa; details: 600 g/ha; data not shown

Structure (SMILES): CCc1cnc(C2=NC(C)(C(C)C)C(=O)N2)c(C(=O)O)c1 (centres unmarked) [P100, Imazethapyr]
- Growth, % change in size following 1 month of culture on the selection media ([1]; 100 μM in selection media): 634%
- Growth, % change in size following 1 month of culture on the selection media ([2]; 100 μM in selection media): 739%

Structure (SMILES): CCCC(=NOCC)C1=C(O)CC(C2CCCSC2)CC1=O (centres unmarked) [cycloxydim]
- herbicide injury [3]: No injury
- Growth, % change in size following 1 month of culture on the selection media ([1]; 10 μM in selection media): 884%
- Growth, % change in size following 1 month of culture on the selection media ([2]; 10 μM in selection media): 867%
- herbicide injury [4]: heavily damaged
- herbicide tolerance in the field [5]: Herbicide tolerance phenotypes as described herein have also been exhibited

Structure (SMILES): CC(Oc1ccc(Oc2ncc(C(F)(F)F)cc2Cl)cc1)C(=O)O (centres unmarked) [haloxyfop]
- Growth, % change in size following 1 month of culture on the selection media ([1]; 10 μM in selection media): 1613%
- Growth, % change in size following 1 month of culture on the selection media ([2]; 10 μM in selection media): 1669%

Structure (SMILES): CC/C(=N\OC/C=C/Cl)C1=C(O)CC(C2CCOCC2)CC1=O (centres unmarked) [tepraloxydim]
- Growth, % change in size following 1 month of culture on the selection media ([1]; 2.5 μM in selection media): 1360%
- Growth, % change in size following 1 month of culture on the selection media ([2]; 2.5 μM in selection media): 1416%
